US20220274980A1, “PHARMACOLOGICAL INHIBITORS OF THE ENL YEATS DOMAIN” (priority 2019, published 2022)

Assays:
[1] = Half-life in mouse liver microsomes; assay type: in vitro ADME; conditions: read-out: t1/2 (min) mouse liver microsomes
[2] = Half-life in human liver microsomes; assay type: in vitro ADME; conditions: read-out: t1/2 (min) human liver microsomes
[3] = molecular target: T1, ENL localization to chromatin of target gene promoters (Homo sapiens, UniProt Q03111); experiment: ENL ChIP-qPCR in MV4;11 cells; assay type: cell-based; conditions: HOX intergenic region as negative control locus
T1 construct: 11 cells; endogenous in cells; host or cells: MV4;11
T1 sequence (Q03111 1-559): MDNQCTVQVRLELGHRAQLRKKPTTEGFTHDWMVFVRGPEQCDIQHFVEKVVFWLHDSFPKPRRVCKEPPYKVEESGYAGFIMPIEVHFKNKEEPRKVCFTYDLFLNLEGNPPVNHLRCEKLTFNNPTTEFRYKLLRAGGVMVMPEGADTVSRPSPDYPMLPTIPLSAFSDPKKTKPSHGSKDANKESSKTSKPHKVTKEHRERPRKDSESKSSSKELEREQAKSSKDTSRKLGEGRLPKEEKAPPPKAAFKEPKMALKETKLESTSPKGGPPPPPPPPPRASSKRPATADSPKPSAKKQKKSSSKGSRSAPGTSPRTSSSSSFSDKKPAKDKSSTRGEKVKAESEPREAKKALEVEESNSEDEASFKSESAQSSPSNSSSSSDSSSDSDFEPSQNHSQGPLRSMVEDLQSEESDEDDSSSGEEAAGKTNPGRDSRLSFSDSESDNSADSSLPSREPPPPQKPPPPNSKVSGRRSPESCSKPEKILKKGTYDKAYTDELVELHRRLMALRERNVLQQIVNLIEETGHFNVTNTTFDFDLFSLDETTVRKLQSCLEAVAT
Protocol: ChIP-qPCR. Chromatin immunoprecipitation (ChIP)-qPCR of ENL was performed in MV4; 11 cells using 50 million cells per treatment. Crosslinking was performed in batches of 50 million cells in 50 mL tissue culture media by addition of 1/10 volume of 10× crosslinking solution (11% formaldehyde, 50 mM HEPES pH 7.3, 100 mM NaCl, 1 mM EDTA pH 8.0, 0.5 mM EGTA ph 8.0). After 10 min of crosslinking at room temperature, formaldehyde was quenched with 125 mM glycine, cells were then washed three times in PBS pH 7.4, flash frozen in liquid nitrogen, and stored at −80° C. Frozen pellets were thawed on ice, resuspended in cold lysis buffer 1 (LB1; 5 mL per 50 million cells; 50 mM HEPES pH 7.3, 140 mM NaCl, 1 mM EDTA, 10% glycerol, 0.5% NP-40, and 0.25% Triton X-100, Roche protease inhibitor cocktail), and rotated for 10 minutes at 4° C. LB1 was removed and pelletswere resuspended in cold lysis buffer 2 (LB2; 5 mL per 50 million cells; 10 mM Tris-HCl pH 8.0, 200 mM NaCl, 1 mM EDTA pH 8.0 and 0.5 mM EGTA pH 8.0, Roche protease inhibitor cocktail) and rotated for 10 minutes at 4° C. LB2 was removed and pellets were resuspended in cold sonication buffer (1.5 mL per 50 million cells; 50 mM HEPES pH 7.3, 140 mM NaCl, 1 mM EDTA, 1 mM EGTA, 1% Triton X-100, 0.1% Na-deoxycholate, 0.1% SDS, Roche protease inhibitor cocktail). […] Results were quantified as percentage of the input sample.

[4] = test system: ENL target gene expression (MYC, HOXA9); experiment: qRT-PCR of ENL target gene expression; assay type: cell-based
Text: Quantitative reverse-transcriptase PCR (qRT-PCR). […] The ddCt method was used to quantify fold change differences in gene expression between control and treated samples (using expression of B2M for normalization).

## O=C(NC1CCC1)c1ccc2nc(-c3cccc(NS(=O)(=O)NCCN4CCCCC4)c3)cn2c1 [Compound 93]
[1]
  half-life: 9.98 min
[2]
  half-life: 22.6 min
[3]
  localization of ENL to chromatin of target gene promoters by ChIP-qPCR: prevents localization of ENL to chromatin of target gene promoters
[4]
  suppression of ENL target gene expression: Suppression of ENL target gene expression
